Experimental data taken from patent US20260263485A1, “AMINOSTEROL COMPOUNDS, AMINOSTEROL-CYCLODEXTRIN FORMULATIONS, AND METHODS OF USING THE SAME” (Enterin, Inc., priority 2022, published 2026).
Several values for one entry are separate records, joined by “and”; a condition that tells them apart may be missing. Equal entries are not always repeated. Where two headings read alike, the source gives them in different places.

Key:
[1] = Identification of metabolites of ENT-03S in rat plasma and urine samples (UPLC-MS/MS); format: in vivo
Protocol: An equal number of rat urine (50 μL) were taken from different animals at various time points following administration of ENT-03S. For plasma samples, the Hamilton pooling method was used.
Study design: An equal number of rat urine (50 μL) samples were taken from different animals at various time points from study No.: PH-DMPK-ETR-21-001 following administration of ENT-03S. For plasma samples, the Hamilton pooling method was used.
The samples were then analysed using UPLC-MS/MS.
Compound dependent parameters were optimized by ENT-03S.

[2] = Plasma pharmacokinetics of ENT-03S cyclodextrin formulation after subcutaneous injection; format: in vivo, rat; conditions: 20% beta-cyclodextrin formulation, male SD rats
Protocol: In this example, ENT-03S was formulated with unmodified beta-cyclodextrin at a concentration of 25 mg/ml ENT-03, and 20% beta-cyclodextrin, pH 7.5, buffered with phosphate.
Male Sprague-Dawley rats were administered the ENT-03-cyclodextrin formulation subcutaneous at a dose of 10 mg/kg. Blood samples were drawn from the tail vein at various times, the concentrations of ENT-03 determined, and PK parameters determined.

[3] = SC Dose 10 mg/kg, plasma, individual rats, 10 mg/kg

Q: Which results are given for `C[C@H](CCC[C@H](C)C(=O)O)[C@H]1CCC2C3C(CC[C@@]21C)[C@@]1(C)CC[C@H](NCCCNCCCCNCCCN)C[C@@H]1C[C@H]3O` (stereo partly drawn) [ENT-03S, (2S,6R)-6-((3S,5R,7R,10S,13R,17R)-3-((3-((4-((3-aminopropyl)amino)butyl)amino)propyl)amino)-7-hydroxy-10,13-dimethylhexadecahydro-1 H-cyclopenta[a]phenanthren-17-yl)-2-methylheptanoic acid]?
A: Metabolite peak area percentages Rat Plasma Male ([1]; pooled male SD rat plasma 0.25-24 h after 10 mg/kg ENT-03S SC, relative XIC peak area): 91.29%; Metabolite peak area Rat Plasma Male ([1]; pooled male SD rat plasma after 10 mg/kg ENT-03S SC, XIC peak area): 6.03E+08; Metabolite peak area percentages Rat Urine Male ([1]; pooled male SD rat urine 0-24 h after 10 mg/kg ENT-03S SC, relative XIC peak area, “—”: not observed): 71.94%; Metabolite peak area Rat Urine Male ([1]; pooled male SD rat urine after 10 mg/kg ENT-03S SC, XIC peak area, “—”: not observed): 1.62E+06; Concentration (ng/ml) Rat 1-3 ([2]; 10 mg/kg SC, 0.25 h, individual rats, 10 mg/kg): 22000 ng/mL and 20800 ng/mL; Concentration (ng/ml) Rat 1-3 ([2]; 10 mg/kg SC, 0.5 h, individual rats, 10 mg/kg): 27100 ng/mL and 30200 ng/mL; Concentration (ng/ml) Rat 1-3 ([2]; 10 mg/kg SC, 1 h, individual rats, 10 mg/kg): 31700 ng/mL and 33000 ng/mL; Concentration (ng/ml) Rat 1-3 ([2]; 10 mg/kg SC, 2 h, individual rats, 10 mg/kg): 32700 ng/mL and 33300 ng/mL; Concentration (ng/ml) Rat 1-3 ([2]; 10 mg/kg SC, 4 h, individual rats, 10 mg/kg): 29600 ng/mL and 25400 ng/mL; Concentration (ng/ml) Rat 1-3 ([2]; 10 mg/kg SC, 8 h, individual rats, 10 mg/kg): 25000 ng/mL and 23000 ng/mL; Concentration (ng/ml) Rat 1-3 ([2]; 10 mg/kg SC, 24 h, individual rats, 10 mg/kg): 14100 ng/mL and 12600 ng/mL; Concentration (ng/ml) Rat 1-3 ([2]; 10 mg/kg SC, 48 h, individual rats, 10 mg/kg): 7700 ng/mL and 5620 ng/mL; Concentration (ng/ml) Rat 1-3 ([2]; 10 mg/kg SC, 72 h, individual rats, 10 mg/kg): 1850 ng/mL and 4200 ng/mL and 2440 ng/mL; AUC_% Extrap_obs [2, 3]: 6.74% and 15.0% and 8.08%; AUClast [2, 3]: 944.488 µg·h/mL and 811.185 µg·h/mL; AUClast/D [2, 3]: 71600 kg·ng·h/mL/mg and 94400 kg·ng·h/mL/mg and 81100 kg·ng·h/mL/mg; AUClnf [2, 3]: 1110.949 µg·h/mL and 882.526 µg·h/mL; Cmax [2, 3]: 32700 ng/mL and 33300 ng/mL; MRTlnf_obs [2, 3]: 24.3 h and 36.3 h and 27.2 h; T1/2 [2, 3]: 27.5 h and 20.3 h; AUC_% Extrap_obs Mean ([2]; SC Dose 10 mg/kg, plasma, mean): 9.9%; AUClast/D Mean ([2]; SC Dose 10 mg/kg, plasma, mean): 82400 kg·ng·h/mL/mg; MRTlnf_obs Mean ([2]; SC Dose 10 mg/kg, plasma, mean): 29.3 h; Tmax ([2]; Sprague-Dawley, rat, SC Dose 10 mg/kg, plasma, individual rats, read-out: Tmax): 2 h; concentration at 0.25 h ([2]; male, Sprague-Dawley, rat, plasma, sc, 10 mg/kg, 10 mg/kg SC, 0.25 h, individual rats, read-out: Concentration (ng/ml) Rat 1-3): 23100 ng/mL; concentration at 0.25 h ([2]; male, Sprague-Dawley, rat, plasma, sc, 10 mg/kg, 10 mg/kg SC, 0.25 h, mean, read-out: Concentration Mean): 22000 ng/mL; concentration at 0.5 h ([2]; male, Sprague-Dawley, rat, plasma, sc, 10 mg/kg, 10 mg/kg SC, 0.5 h, individual rats, read-out: Concentration (ng/ml) Rat 1-3): 25700 ng/mL; concentration at 0.5 h ([2]; male, Sprague-Dawley, rat, plasma, sc, 10 mg/kg, 10 mg/kg SC, 0.5 h, mean, read-out: Concentration Mean): 27700 ng/mL; concentration at 1 h ([2]; male, Sprague-Dawley, rat, plasma, sc, 10 mg/kg, 10 mg/kg SC, 1 h, individual rats, read-out: Concentration (ng/ml) Rat 1-3): 30700 ng/mL; concentration at 1 h ([2]; male, Sprague-Dawley, rat, plasma, sc, 10 mg/kg, 10 mg/kg SC, 1 h, mean, read-out: Concentration Mean): 31800 ng/mL; concentration at 2 h ([2]; male, Sprague-Dawley, rat, plasma, sc, 10 mg/kg, 10 mg/kg SC, 2 h, individual rats, read-out: Concentration (ng/ml) Rat 1-3): 31300 ng/mL; concentration at 2 h ([2]; male, Sprague-Dawley, rat, plasma, sc, 10 mg/kg, 10 mg/kg SC, 2 h, mean, read-out: Concentration Mean): 32400 ng/mL; concentration at 4 h ([2]; male, Sprague-Dawley, rat, plasma, sc, 10 mg/kg, 10 mg/kg SC, 4 h, individual rats, read-out: Concentration (ng/ml) Rat 1-3): 25700 ng/mL; concentration at 4 h ([2]; male, Sprague-Dawley, rat, plasma, sc, 10 mg/kg, 10 mg/kg SC, 4 h, mean, read-out: Concentration Mean): 26900 ng/mL; concentration at 8 h ([2]; male, Sprague-Dawley, rat, plasma, sc, 10 mg/kg, 10 mg/kg SC, 8 h, individual rats, read-out: Concentration (ng/ml) Rat 1-3): 22700 ng/mL; concentration at 8 h ([2]; male, Sprague-Dawley, rat, plasma, sc, 10 mg/kg, 10 mg/kg SC, 8 h, mean, read-out: Concentration Mean): 23600 ng/mL; concentration at 24 h ([2]; male, Sprague-Dawley, rat, plasma, sc, 10 mg/kg, 10 mg/kg SC, 24 h, individual rats, read-out: Concentration (ng/ml) Rat 1-3): 10300 ng/mL; concentration at 24 h ([2]; male, Sprague-Dawley, rat, plasma, sc, 10 mg/kg, 10 mg/kg SC, 24 h, mean, read-out: Concentration Mean): 12300 ng/mL; concentration at 48 h ([2]; male, Sprague-Dawley, rat, plasma, sc, 10 mg/kg, 10 mg/kg SC, 48 h, individual rats, read-out: Concentration (ng/ml) Rat 1-3): 4080 ng/mL; concentration at 48 h ([2]; male, Sprague-Dawley, rat, plasma, sc, 10 mg/kg, 10 mg/kg SC, 48 h, mean, read-out: Concentration Mean): 5770 ng/mL; concentration at 72 h ([2]; male, Sprague-Dawley, rat, plasma, sc, 10 mg/kg, 10 mg/kg SC, 72 h, mean): 2830 ng/mL
